# Results reported in patent US11884675B2, “Heterocyclic compounds as triggering receptor expressed on myeloid cells 2 agonists and methods of use” (AMGEN INC., priority 2020, dated 2024).
# Molecular target: hTREM2 (Homo sapiens, UniProt Q9NZC2)
# Test: TREM2 agonist potency by Syk phosphorylation (AlphaLisa) in HEK293T-hTREM2 cells, used for Examples 306-429
# Format: cell-based
# Parameters: expressed in transfected cells; host or cells: HEK293T (HEK293T-hTREM2 cells)
# Conditions: HEK293 Cells
# Procedure: In vitro Measurement of Triggering Receptor Expressed on Myeloid Cells 2 activity using cellular phosphorylation of Spleen Tyrosine Kinase (“Syk”) Assays used for Examples 306-429
# Measurement of TREM2 agonist potency was done using a HEK cell line expressing human TREM2 and DAP12 (HEK293T-hTREM2 cells). Binding of small molecules to, and activation of, TREM2 increases the phosphorylation of Syk. The resultant levels of Syk phosphorylation were measured using a commercial AlphaLisa reagent kit. To perform the assay, HEK-hTREM2 cells were plated at 14,000 cells per well in a 384 well plate, in 25 μL, of complete growth media and incubated at 37° C., 5% CO2 for 20-24 hours. Prior to the assay, test compounds were diluted in the 384 well plates in assay buffer and allowed to equilibrate for 30 minutes. Growth media was removed from cell plates by inversion on blotting paper, and 25 μL of test compounds in assay buffer was added to cells. Cells were incubated for 45 minutes at room temperature. After 45 minutes, assay buffer was removed and 10 μL of lysis buffer was added. Plates were shaken for 20 minutes at 350 RPM at room temperature. After complete lysis, AlphaLisa reagents were added to the lysate, and fluourescence intensity was measured using a Perkin Elmer Envision plate reader. Intensities were used to generate a standard curve, and % activation was calculated. Curve fitting was performed using Prism v9 software, log(agonist) vs response-variable slope (four parameters), and EC50s were calculated from the curve fit.
# The results presented in Table 20 have been generated with the in vitro assay described above for Examples 306-429. This assay may be used to test any of the compounds described herein to assess and characterize a compound's ability to act as an agonist of TREM2.
# Chain of hTREM2 (Q9NZC2 19-230): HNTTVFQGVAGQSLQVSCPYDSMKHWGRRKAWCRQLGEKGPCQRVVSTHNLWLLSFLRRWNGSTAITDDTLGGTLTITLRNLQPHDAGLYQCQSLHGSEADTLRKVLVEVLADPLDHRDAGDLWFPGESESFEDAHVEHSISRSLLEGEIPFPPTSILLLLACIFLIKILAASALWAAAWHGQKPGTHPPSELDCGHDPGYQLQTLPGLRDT
# Chain of hTREM2 (O43914 22-113 partner): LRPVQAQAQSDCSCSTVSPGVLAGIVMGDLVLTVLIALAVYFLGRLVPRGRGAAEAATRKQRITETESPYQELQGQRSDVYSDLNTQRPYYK
row,Structure (SMILES),EC50 [µM]
1,"Cc1nc2cc(N3CCOC(c4cnn(C5CC5)c4)C3)nc(-c3ccc(C(F)(F)F)nc3)c2nc1C (stereo not drawn) [Example 349, 2-(1-cyclopropyl-1H-pyrazol-4-yl)-4-(2,3-dimethyl-5-(6-(trifluoromethyl)pyridin-3-yl)pyrido[3,4-b]pyrazin-7-yl)morpholine]",≤ 0.05
2,"Cc1cc(C2CN(c3cc4nc(C)cnc4c(-c4ccc(C(F)(F)F)nc4)n3)CCO2)ccn1 (stereo not drawn) [Example 311, 4-(2-methyl-5-(6-(trifluoromethyl)pyridin-3-yl)pyrido[3,4-b]pyrazin-7-yl)-2-(2-methylpyridin-4-yl)morpholine]",0.05 to 0.5
3,"[2H]C([2H])([2H])c1nc2nc([C@H]3CCO[C@@H](c4ccnc(C)c4)C3)nc(-c3ccc(Cl)c(F)c3F)c2nc1C([2H])([2H])[2H] (racemic) [Example 395, 4-(4-chloro-2,3-difluoro-phenyl)-2-[2-(2-methyl-4-pyridyl)tetrahydropyran-4-yl]-6,7-bis(trideuteriomethyl)pteridine]",≤ 0.05
4,"Cc1cc([C@@H]2C[C@H](c3nc(-c4ccc(Cl)c(F)c4F)c4nc(C)c(C)nc4n3)CCO2)ccn1 [Example 396, 4-(4-chloro-2,3-difluorophenyl)-6,7-dimethyl-2-((2S,4R)-2-(2-methylpyridin-4-yl)tetrahydro-2H-pyran-4-yl)pteridine]",0.05 to 0.5
5,"Cc1cc(C2CC(c3cc4nc(C)c(C)cc4c(-c4ccc(F)cc4F)n3)CCO2)ccn1 (stereo not drawn) [Example 328, 5-(2,4-difluorophenyl)-2,3-dimethyl-7-(2-(2-methylpyridin-4-yl)tetrahydro-2H-pyran-4-yl)-1,6-naphthyridine]",≤ 0.05
6,"Cc1cc([C@H]2C[C@@H](c3nc(-c4ccc(Cl)cc4F)c4ccc(C)nc4n3)CCO2)ccn1 (racemic) [Example 325, 4-(4-chloro-2-fluorophenyl)-7-methyl-2-(2-(2-methylpyridin-4-yl)tetrahydro-2H-pyran-4-yl)pyrido[2,3-d]pyrimidine]",≤ 0.05
7,"Cc1cc([C@@H]2CN(c3nc(C45CC(C(F)(F)F)(C4)C5)c4ncc(C)nc4n3)CCO2)ccn1 [Example 353, (R)-4-(7-methyl-4-(3-(trifluoromethyl)bicyclo[1.1.1]pentan-1-yl)pteridin-2-yl)-2-(2-methylpyridin-4-yl)morpholine]",0.05 to 0.5
8,"Cc1nc2cc(N3C[C@H](C)O[C@@H](c4cnn(C5CC5)c4)C3)nc(C34CC(C(F)(F)F)(C3)C4)c2nc1C (racemic) [Example 378, 2-(1-cyclopropylpyrazol-4-yl)-4-[2,3-dimethyl-5-[3-(trifluoromethyl)-1-bicyclo[1.1.1]pentanyl]pyrido[3,4-b]pyrazin-7-yl]-6-methyl-morpholine]",0.05 to 0.5
9,"Cc1cnc2c(-c3ccc(F)cc3F)nc([C@H]3CCO[C@@H](c4cnn(C5CC5)c4)C3)nc2n1 [Example 330, 2-[(2R,4S)-2-(1-cyclopropylpyrazol-4-yl)tetrahydropyran-4-yl]-4-(2,4-difluorophenyl)-7-methyl-pteridine]",≤ 0.05
10,"Cc1cc([C@@H]2C[C@H](c3nc(-c4cc(F)c(Cl)c(F)c4)c4nc(C)c(C)nc4n3)CCO2)ccn1 (racemic) [Example 389, 4-(4-chloro-3,5-difluoro-phenyl)-6,7-dimethyl-2-[2-(2-methyl-4-pyridyl)tetrahydropyran-4-yl]pteridine]",≤ 0.05
11,"Cc1nc2cc(N3C[C@@H](C)O[C@@H](c4cnn(C5CC5)c4)C3)nc(C34CC(C(F)(F)F)(C3)C4)c2nc1C (racemic) [Example 379, 2-(1-cyclopropylpyrazol-4-yl)-4-[2,3-dimethyl-5-[3-(trifluoromethyl)-1-bicyclo[1.1.1]pentanyl]pyrido[3,4-b]pyrazin-7-yl]-6-methyl-morpholine]",0.05 to 0.5
12,"Cc1cnc2c(C34CC(C(F)(F)F)(C3)C4)nc(N3C[C@@H](C)O[C@H](c4cnn(C5CC5)c4)C3)nc2n1 [Example 405, (2R,6R)-2-(1-cyclopropyl-1H-pyrazol-4-yl)-6-methyl-4-(7-methyl-4-(3-(trifluoromethyl)bicyclo[1.1.1]pentan-1-yl)pteridin-2-yl)morpholine]",0.05 to 0.5
